Structures can show the parent of a compound that is named as a salt.
Tests used:
Conditions in all cases: exposure time 48 h
[1] = tested on: Caenorhabditis elegans N2; test: AC50 for larval growth inhibition (Hill fit); higher = less potent
Procedure, shortened: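 Synchronised C. elegans N2 L1 larvae (50 per well, 96-well plates) were grown for 48 h at 20°C in K-medium with killed OP50, 1% DMSO and 0.5–200 µM chemical. The COPAS Biosort measured each worm's size as extinction, which was log-transformed and averaged per well. AC50 came from a constrained Hill fit by weighted genetic-algorithm regression on wells with at least 10 worms. Out-of-range values are censored.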

[2] = tested on: Caenorhabditis elegans N2; test: lowest effective concentration for larval growth inhibition (size below effect threshold); higher = less potent
Procedure, shortened: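 Each well of a 96-well plate received 50 C. elegans N2 L1 larvae, which grew for 48 h at 20°C in K-medium containing killed bacteria, 1% DMSO and the chemical at 0.5, 1, 5, 10, 50, 100 or 200 µM. A Biosort recorded the extinction of every worm as its size, and these readings were log-transformed and averaged per well. The lowest effective concentration is defined as the first dose at which the plate-adjusted mean size falls below the threshold and stays below it at all higher doses; that threshold is 5.665.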

[3] = tested on: Caenorhabditis elegans N2; test: mean nematode size ln(EXT) after 48 h, plate-adjusted (DMSO control set to 6) (ln(EXT), control-adjusted); higher = larger nematodes / less growth inhibition
Procedure, shortened: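 Synchronised C. elegans N2 L1 larvae (50 per well, 4–6 wells per treatment) were grown for 48 h at 20°C in K-medium with killed OP50, 1% DMSO and 0.5–200 µM chemical. The Biosort measured each worm's extinction, and debris was removed by a growth model. Values were natural-logged and averaged per well. Mean size was then plate-adjusted by subtracting the vehicle control mean and adding 6.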

| SMILES | AC50 for larval growth inhibition [1] | lowest effective concentration [2] | mean nematode size ln(EXT) (ln) ([3]; 0.5 µM) | mean nematode size ln(EXT) (ln) ([3]; 1 µM) | mean nematode size ln(EXT) (ln) ([3]; 5 µM) | mean nematode size ln(EXT) (ln) ([3]; 10 µM) | mean nematode size ln(EXT) (ln) ([3]; 50 µM) | mean nematode size ln(EXT) (ln) ([3]; 100 µM) | mean nematode size ln(EXT) (ln) ([3]; 200 µM) |
| --- | --- | --- | --- | --- | --- | --- | --- | --- | --- |
| CCCCN1C(=O)[C@@H]([C@H](O)C2CCCCC2)NC(=O)C12CCN(Cc1ccc(Oc3ccc(C(=O)O)cc3)cc1)CC2 [Aplaviroc hydrochloride] | > 200 µM | 200 µM | 5.87 | 5.82 | 5.8 | 5.88 | 5.87 | 5.74 | 5.55 |
| COP(=O)(OC)SCn1c(=O)oc2cc(Cl)cnc21 [Azamethiphos] | > 200 µM | 200 µM | 6.07 | 5.94 | 5.91 | 5.93 | 5.88 | 5.75 | 5.57 |
| Cn1cnc([N+](=O)[O-])c1Sc1ncnc2[nH]cnc12 [Azathioprine] | > 200 µM | 200 µM | 5.89 | 5.89 | 5.93 | 5.86 | 5.89 | 5.84 | 5.36 |
| COP(=S)(OC)SCn1nnc2ccccc2c1=O [Azinphos-methyl] | 170 µM | 50 µM | 6.09 | 6.12 | 6.04 | 5.95 | 5.61 | 5.49 | 3.9 |
| c1ccc(/N=N/c2ccccc2)cc1 [Azobenzene] | 91.6 µM | 10 µM | 5.73 | 5.67 | 5.67 | 5.61 | 5.21 | 4.48 | 3.5 |
| CO/C=C(/C(=O)OC)c1ccccc1Oc1cc(Oc2ccccc2C#N)ncn1 [Azoxystrobin] | > 200 µM | 200 µM | 5.84 | 5.87 | 5.93 | 5.9 | 5.8 | 5.85 | 5.5 |
| CNC(=O)Oc1cccc2c1OC(C)(C)O2 [Bendiocarb] | > 200 µM | 200 µM | 5.79 | 5.85 | 5.8 | 5.79 | 5.81 | 5.76 | 5.25 |
| CCCCN(CC)c1c([N+](=O)[O-])cc(C(F)(F)F)cc1[N+](=O)[O-] [Benfluralin] | 175 µM | 50 µM | 5.76 | 5.73 | 5.82 | 5.7 | 5.31 | 5.04 | 4.16 |
| O=C(Nc1ccccc1)c1ccccc1I [Benodanil] | 39.3 µM | 5 µM | 5.99 | 5.98 | 5.62 | 5.66 | 4.16 | 4.19 | 3.37 |
| CCCCNC(=O)n1c(NC(=O)OC)nc2ccccc21 [Benomyl] | > 200 µM | 10 µM | 6.03 | 6.07 | 5.68 | 5.58 | 5.36 | 5.4 | 4.35 |
| CC(C)N1C(=O)c2ccccc2NS1(=O)=O [Bentazone] | > 200 µM | 200 µM | 6.05 | 5.93 | 5.96 | 6 | 6.01 | 6.05 | 5.55 |
| c1ccc2cc3c(ccc4ccccc43)cc2c1 [Benz[a]anthracene] | 24.9 µM | 1 µM | 5.89 | 4.38 | 5.22 | 5.01 | 4.59 | 4.58 | 3.32 |
| c1ccc2c(c1)-c1cccc3c1c-2cc1ccccc13 [Benzo[b]fluoranthene] | < 0.5 µM | ≤ 0.5 µM | 5.22 | 4.39 | 4.09 | 4.15 | 4.17 | 5.53 | 4.32 |
| O=C(c1ccccc1)c1ccccc1 [Benzophenone] | > 200 µM | 100 µM | 5.86 | 6.01 | 5.94 | 5.89 | 5.79 | 5.66 | 4.65 |
| ClC(Cl)(Cl)c1ccccc1 [Benzotrichloride] | > 200 µM | 200 µM | 5.84 | 5.87 | 5.73 | 5.82 | 5.78 | 5.75 | 4.93 |
| O=c1[nH]c2ccc([S+]([O-])CCN3CCC(Cc4ccc(F)cc4)CC3)cc2o1 (configuration not stated) [Besonprodil] | > 200 µM | 200 µM | 5.75 | 6 | 5.87 | 5.9 | 5.87 | 5.82 | 5.31 |
| c1ccc(-c2ccccc2)cc1 [Biphenyl] | 164 µM | 200 µM | 5.85 | 5.87 | 5.9 | 5.96 | 5.92 | 5.74 | 3.88 |
| CC(C)(c1ccc(O)cc1)c1ccc(O)cc1 [Bisphenol A] | > 200 µM | 200 µM | 5.83 | 5.86 | 5.99 | 5.88 | 5.95 | 5.96 | 5.46 |
| CCC(C)(c1ccc(O)cc1)c1ccc(O)cc1 [Bisphenol B] | 87.1 µM | 100 µM | 5.9 | 5.81 | 5.9 | 5.74 | 5.87 | 5.14 | 4.74 |

| SMILES | AC50 for larval growth inhibition [1] | lowest effective concentration [2] | mean nematode size ln(EXT) (ln) ([3]; 0.5 µM) | mean nematode size ln(EXT) (ln) ([3]; 1 µM) | mean nematode size ln(EXT) (ln) ([3]; 5 µM) | mean nematode size ln(EXT) (ln) ([3]; 10 µM) | mean nematode size ln(EXT) (ln) ([3]; 50 µM) | mean nematode size ln(EXT) (ln) ([3]; 100 µM) | mean nematode size ln(EXT) (ln) ([3]; 200 µM) |
| --- | --- | --- | --- | --- | --- | --- | --- | --- | --- |
| O=C(Nc1ccccc1-c1ccc(Cl)cc1)c1cccnc1Cl [Boscalid] | 9.83 µM | 50 µM | 6.09 | 6 | 5.75 | 5.68 | 4.94 | 5.21 | 5.39 |
| O=[N+]([O-])C(Br)(CO)CO [Bronopol] | > 200 µM | 50 µM | 5.88 | 5.93 | 5.93 | 5.84 | 5.65 | 5.56 | 4.95 |
| CC(C)N1C(=O)N(c2ccccc2)CS/C1=N\C(C)(C)C [Buprofezin] | 181 µM | 200 µM | 5.88 | 5.75 | 5.68 | 5.8 | 5.93 | 6.04 | 3.51 |
| CCCCOCN(C(=O)CCl)c1c(CC)cccc1CC [Butachlor] | 13.8 µM | 200 µM | 5.93 | 6.1 | 6.07 | 6.12 | 6.05 | 6.08 | 5.44 |
| CC(C)N(Cc1ccccc1)C(=O)C(C)(C)C [Butam] | > 200 µM | 200 µM | 5.94 | 5.88 | 5.91 | 5.86 | 5.88 | 5.86 | 5.61 |
| CCC(C)Nc1c([N+](=O)[O-])cc(C(C)(C)C)cc1[N+](=O)[O-] (configuration not stated) [Butralin] | 48.9 µM | 50 µM | 5.81 | 5.77 | 5.75 | 5.8 | 4.89 | 4.04 | 4.68 |
| CCCCOC(=O)c1ccccc1 [Butyl benzoate] | 100 µM | 200 µM | 6 | 5.94 | 5.85 | 5.83 | 6 | 5.76 | 5.53 |
| CCSC(=O)N(CC(C)C)CC(C)C [Butylate] | 196 µM | 200 µM | 5.97 | 5.89 | 6.11 | 5.97 | 6.05 | 6.06 | 5.65 |
| CCCCOC(=O)c1ccc(O)cc1 [Butylparaben] | 103 µM | 200 µM | 5.84 | 5.8 | 5.75 | 5.78 | 5.96 | 5.68 | 5.19 |
| CCCCCCCCCCCCCCCS(=O)(=O)Oc1ccccc1 [C10-21 sulfonic acids phenyl esters] | 169 µM | 200 µM | 6.06 | 6.02 | 5.89 | 6 | 5.93 | 5.96 | 3.65 |
| COCCOC[C@H](CC1(C(=O)N[C@H]2CC[C@@H](C(=O)O)CC2)CCCC1)C(=O)Oc1ccc2c(c1)CCC2 [Candoxatril] | > 200 µM | 200 µM | 5.96 | 5.83 | 5.92 | 5.81 | 5.91 | 5.85 | 5.66 |
| O=C1C2CC=CCC2C(=O)N1SC(Cl)(Cl)Cl (configuration not stated) [Captan] | 85.6 µM | 50 µM | 5.8 | 5.75 | 5.73 | 5.84 | 5.45 | 4.27 | 3.67 |
| CC(=O)c1ccc2c(c1)[C@H](NC(=O)c1ccc(F)cc1)[C@@H](O)C(C)(C)O2 [Carabersat] | 127 µM | 200 µM | 5.79 | 5.88 | 5.9 | 5.89 | 5.99 | 5.93 | 5.65 |
| CNC(=O)Oc1cccc2c1OC(C)(C)C2 [Carbofuran] | 198 µM | 100 µM | 5.92 | 5.92 | 5.84 | 5.89 | 5.75 | 5.39 | 4.54 |
| CCCCN(CCCC)SN(C)C(=O)Oc1cccc2c1OC(C)(C)C2 [Carbosulfan] | 60.2 µM | 1 µM | 5.76 | 5.51 | 5.04 | 4.86 | 5.15 | 4.44 | 4 |
| CCOC(=O)C(Cl)Cc1cc(-n2nc(C)n(C(F)F)c2=O)c(F)cc1Cl (configuration not stated) [Carfentrazone-ethyl] | > 200 µM | 200 µM | 6.04 | 5.98 | 6.04 | 6.04 | 5.93 | 5.98 | 5.59 |
| Cc1c(C(=O)O)c(O)cc2c1C(=O)c1c(O)c([C@@H]3O[C@H](CO)[C@@H](O)[C@H](O)[C@H]3O)c(O)c(O)c1C2=O [Carminic acid] | 115 µM | 100 µM | 5.97 | 5.92 | 5.91 | 5.96 | 5.97 | 5.46 |  |
| Cc1ccc(-c2cc(C(F)(F)F)nn2-c2ccc(S(N)(=O)=O)cc2)cc1 [Celecoxib] | 30.3 µM | 50 µM | 5.9 | 5.92 | 5.8 | 5.81 | 4.7 | 4.53 | 4.22 |
